Active and inactive are the calls of the source. The calls are words filed in the database; no cut-off is given here.
What was measured:
3T3-L1 [1] = assay: Inhibition of chronic insulin-stimulated insulin resistance in differentiated mouse 3T3L1 cells assessed as 2-deoxy-D-[3H]-glucose uptake after 24 hrs by scintillation counting analysis; assay type: functional, cell-based
3T3-L1 [2] = assay: Induction of insulin-stimulated 2-deoxy-D-[3H]-glucose uptake in differentiated mouse 3T3L1 cells at 10 uM after 24 hrs by scintillation counting analysis; assay type: functional, cell-based
[3] = Upregulation of FAS protein expression in differentiated mouse 3T3L1 cells after 7 days by western blot analysis; assay type: functional, cell-based; settings: 3T3-L1
[4] = Upregulation of aP2 protein expression in differentiated mouse 3T3L1 cells after 7 days by western blot analysis; assay type: functional, cell-based; settings: 3T3-L1
3T3-L1 [5] = assay: Induction of adipogenesis in mouse 3T3L1 cells assessed as lipid accumulation at 10 uM on day 8 by oil Red O staining; assay type: functional, cell-based
Mus musculus [6] = assay: Hepatoprotective activity against thioacetamide-induced liver toxicity in Swiss albino mouse assessed as protection against histological damage at 20 mg/kg administered for 7 days started 1 day after thioacetamide challenge measured on day 8 by hematoxylin-eosin staining; assay type: functional, organism-based; set-up: dose 20 mg/kg
Mus musculus [7] = assay: Hepatoprotective activity against thioacetamide-induced liver toxicity in Swiss albino mouse assessed as protection in serum total bilirubin activity at 20 mg/kg administered for 7 days started 1 day after thioacetamide challenge measured on day 8; assay type: functional
Mus musculus [8] = assay: Hepatoprotective activity against thioacetamide-induced liver toxicity in Swiss albino mouse assessed as protection in serum ALP activity at 20 mg/kg administered for 7 days started 1 day after thioacetamide challenge measured on day 8; assay type: functional
Mus musculus [9] = assay: Hepatoprotective activity against thioacetamide-induced liver toxicity in Swiss albino mouse assessed as protection in serum AST activity at 20 mg/kg administered for 7 days started 1 day after thioacetamide challenge measured on day 8; assay type: functional
Mus musculus [10] = assay: Hepatoprotective activity against thioacetamide-induced liver toxicity in Swiss albino mouse assessed as protection in serum ALT activity at 20 mg/kg administered for 7 days started 1 day after thioacetamide challenge measured on day 8; assay type: functional
Mus musculus [11] = assay: Hepatoprotective activity against thioacetamide-induced liver toxicity in Swiss albino mouse assessed as protection in serum AST activity at 20 mg/kg, po administered for 7 days started 1 day after thioacetamide challenge measured on day 8; assay type: functional, organism-based; set-up: dose 20 mg/kg
Mus musculus [12] = assay: Hepatoprotective activity against thioacetamide-induced liver toxicity in Swiss albino mouse assessed as protection in serum ALT activity at 20 mg/kg, po administered for 7 days started 1 day after thioacetamide challenge measured on day 8; assay type: functional, organism-based; set-up: dose 20 mg/kg
Mus musculus [13] = assay: Hepatoprotective activity against thioacetamide-induced liver toxicity in Swiss albino mouse assessed as protection against histological damage at 20 mg/kg, po administered for 7 days started 1 day after thioacetamide challenge measured on day 8 by hematoxylin-eosin staining; assay type: functional, organism-based; set-up: dose 20 mg/kg
Mus musculus [14] = assay: Hepatoprotective activity against thioacetamide-induced liver toxicity in Swiss albino mouse assessed as protection in serum total bilirubin activity at 20 mg/kg, po administered for 7 days started 1 day after thioacetamide challenge measured on day 8; assay type: functional, organism-based; set-up: dose 20 mg/kg
Mus musculus [15] = assay: Hepatoprotective activity against thioacetamide-induced liver toxicity in Swiss albino mouse assessed as protection in serum ALP activity at 20 mg/kg, po administered for 7 days started 1 day after thioacetamide challenge measured on day 8; assay type: functional, organism-based; set-up: dose 20 mg/kg

Molecule	Inhibition activity (active/not active) (3T3-L1 [1])	Activity (3T3-L1 [2])	Activity [3]	Activity [4]	Activity (3T3-L1 [5])	Activity (Mus musculus [6])	Activity (Mus musculus [7]) [%]	Activity (Mus musculus [8]) [%]	Activity (Mus musculus [9]) [%]	Activity (Mus musculus [10]) [%]	Activity (Mus musculus [11]) [%]	Activity (Mus musculus [12]) [%]	Activity (Mus musculus [13])	Activity (Mus musculus [14]) [%]	Activity (Mus musculus [15]) [%]
COc1ccc(-c2cc(N(C)CCN3C(=O)SC(Cc4cccc(O)c4)C3=O)c(C#N)c(=O)o2)cc1 (centres undefined)	inactive	Active	Active	Active	Active	Active	100	100	75	89	–	–	–	–	–
CN(CCBr)c1cc(-c2ccc(Cl)cc2)oc(=O)c1C#N	Active	Active	Active	inactive	Active	Active	100	100	87	100	–	–	–	–	–
COc1ccc(-c2cc(N(C)CCOC(=O)Cc3ccc(O)cc3)c(C#N)c(=O)o2)cc1	inactive	Active	Active	Active	Active	Active	100	100	60	92	–	–	–	–	–
CN(CCOc1ccc(CC2SC(=O)NC2=O)cc1)c1ccccn1 (centres undefined)	Active	Active	Active	Active	–	–	–	–	–	–	–	–	–	–	–
SILYMARIN	–	–	–	–	–	–	–	–	–	–	95	93	Active	100	100

Reference: ChEMBL document CHEMBL3217749, “Design and synthesis of novel pyranone-based insulin sensitizers exhibiting in vivo hepatoprotective activity” (2013)
